Reference: patent US20250011366A1, “Prodrugs of Antibiotic Teixobactin” (priority 2021, published 2025)

What was measured:
[1] = Qualitative gelation assay in PBS; format: physicochemical; conditions: 10 mg/mL DMSO stock added to 1×PBS pH 7.4
Description: Gel formation of the teixobactin analogues was compared to that of the O-acyl isopeptide prodrugs in a qualitative gelation assay. In this experiment, a 10 mg/mL stock solution of the peptide trifluoroacetate salt in DMSO is added to 1×PBS buffer at pH 7.4 and gel formation is observed over time. Crystal violet is added to the PBS buffer to facilitate the visualization of the gels by providing contrast. […] In contrast, when the Lys10-teixobactin prodrugs are added, no immediate gel formation occurs.
Gelation assays of the O-acyl isopeptide prodrug analogues of teixobactin were performed using procedures previously reported. See K. Chen, et al., Chem. Commun. 2017, 53, 11357-11359, the disclosure of which is herein incorporated by reference.

human red blood cells = assay: Hemolytic assay; format: cell-based
Description: The hemolytic activity of the O-acyl isopeptide prodrugs and the corresponding teixobactin analogues were evaluated with human red blood cells (FIGS. 9A to 9H). Triton X-100 and melittin were used as positive controls and vancomycin and water (vehicle) were used as negative controls in the hemolysis assays. […] In contrast, 0.002% polysorbate 80 had no effect on the hemolytic activity of Lys10-teixobactin and Leu10-teixobactin and little effect on the corresponding O-acyl isopeptide prodrug analogues. When the hemolysis assays were performed with teixobactin, no hemolysis was observed up to 100 μg/mL without polysorbate 80 and modest hemolysis (4%) at 100 μg/mL with 0.002% polysorbate 80.
Preparation of Phosphate-Buffered Saline (PBS) Buffers. A 10×PBS buffer was prepared by dissolving 8.9 g of Na2HPO4, 1.2 g KH2PO4, 40 g NaCl, and 1 g KCl in 500 mL of 18 MO deionized water. The solution was stirred until the buffer salts were completely dissolved. The pH of the 10×PBS buffer was adjusted to 7.4 using either 1 M HCl or 1 M NaOH and was subsequently sterile filtered. To create a 1×PBS buffer, the 10×PBS buffer was diluted 10-fold using 18 MO deionized water. Another 1×PBS buffer was made, supplemented with 0.002% polysorbate 80.
Preparation of human red blood cells. Whole human blood was stored in a 4° C. in K2 EDTA to prevent coagulation. On the day of cell treatment, the blood was centrifuged at 800×g for 5 min at 4° C. to isolate red blood cells (RBCs). The plasma layer was then removed and discarded. Approximately 3 mL of 150 mM NaCl solution was added to the RBCs and mixed gently by inversion. The RBCs were centrifuged at 800×g for 8 min at 4° C. and the supernatant was discarded. An additional wash with 150 mM NaCl was performed, centrifuged at 800×g for 8 min at 4° C. and the supernatant was discarded. 2 mL of whole RBCs were transferred to a 15-mL conical tube. Approximately 4 mL of 1×PBS was added to the RBCs and inverted gently to mix. The RBCs were centrifuged at 800×g for 8 min at 4° C. […]
Hemolytic assay readout. […]

[2] = tested on: four Gram-positive bacteria (methicillin-susceptible and methicillin-resistant S. aureus, B. subtilis, S. epidermidis); format: cell-based
Description: The antibiotic activity of the teixobactin O-acyl isopeptide prodrugs was evaluated using minimum inhibitory concentration (MIC) assays with four Gram-positive bacteria and compared the MIC values to those of the parent teixobactin analogues. Methicillin-susceptible and methicillin-resistant S. aureus were used as representative pathogens and B. subtilis and S. epidermidis as additional Gram-positive bacteria, and E. coli was used as a Gram-negative control. The activities of the teixobactin analogues and prodrugs were compared to those of teixobactin and vancomycin.
Bacillus subtilis (ATCC 6051), Staphylococcus epidermidis (ATCC 14990), Staphylococcus aureus (ATCC 29213), and Escherichia coli(ATCC 10798) were cultured from glycerol stocks in Mueller-Hinton broth overnight in a shaking incubator at 37° C. Staphylococcus aureus (ATCC 700698) was cultured from a glycerol stock in brain heart infusion broth overnight in a shaking incubator at 37° C. An aliquot of a 1 mg/mL antibiotic stock solution in DMSO was diluted with appropriate culture media to make a 64 μg/mL solution. […] The overnight cultures of each bacterium were diluted with Mueller-Hinton broth to an OD600 of 0.075 as measured for 200 μL in a 96-well plate. […] The OD600 were measured using a 96-well UV/vis plate reader (MultiSkan GO, Thermo Scientific). […]

Row | Structure (SMILES) | gel formation immediately upon addition to PBS [1] | hemolysis (human red blood cells; concentrations up to 100 μg/mL, with and without 0.002% polysorbate 80) | effect of 0.002% polysorbate 80 on hemolytic activity (human red blood cells) | MIC [2] [µg/mL]
1 | CC[C@H](C)[C@H](NC(=O)[C@@H](Cc1ccccc1)NC)C(=O)N[C@@H](CO)C(=O)N[C@H](CCC(N)=O)C(=O)N[C@@H](C(=O)N[C@H](C(=O)N[C@@H](CO)C(=O)N[C@H]1C(=O)N[C@@H](C)C(=O)N[C@@H](CCCNC(=N)N)C(=O)N[C@@H]([C@@H](C)CC)C(=O)O[C@H]1C)[C@@H](C)CC)[C@@H](C)CC [Arg10-teixobactin] | form gels immediately | – | – | –
2 | CN[C@H](CC(C)C)C(=O)N[C@H]1C(=O)N[C@@H](CC(N)=O)C(=O)N[C@H]2C(=O)N[C@H]3C(=O)N[C@H](C(=O)N[C@H](C(=O)O)c4cc(O)cc(O)c4-c4cc3ccc4O)[C@H](O)c3ccc(c(Cl)c3)Oc3cc2cc(c3O[C@@H]2O[C@H](CO)[C@@H](O)[C@H](O)[C@H]2O[C@H]2C[C@](C)(N)[C@H](O)[C@H](C)O2)Oc2ccc(cc2Cl)[C@H]1O [vancomycin] | – | No hemolysis | – | –
3 | CC[C@H](C)[C@H](NC(=O)[C@@H](Cc1ccccc1)NC)C(=O)N[C@@H](CO)C(=O)N[C@H](CCC(N)=O)C(=O)N[C@@H](C(=O)N[C@H](C(=O)N[C@@H](CO)C(=O)N[C@H]1C(=O)N[C@@H](C)C(=O)N[C@@H](CCCCN)C(=O)N[C@@H]([C@@H](C)CC)C(=O)O[C@H]1C)[C@@H](C)CC)[C@@H](C)CC [Lys10-teixobactin] | large gelatinous aggregates form immediately | – | no effect | 2 to 4
4 | CC[C@H](C)[C@H](NC(=O)[C@@H](Cc1ccccc1)NC)C(=O)N[C@@H](CO)C(=O)N[C@H](CCC(N)=O)C(=O)N[C@@H](C(=O)N[C@H](C(=O)N[C@@H](CO)C(=O)N[C@H]1C(=O)N[C@@H](C)C(=O)N[C@@H](CC(C)C)C(=O)N[C@@H]([C@@H](C)CC)C(=O)O[C@H]1C)[C@@H](C)CC)[C@@H](C)CC [Leu10-teixobactin] | form gels immediately | – | no effect | –
